Values quoted from earlier work, collected in patent US20080280850A1, “Methods and Compositions for Treating Flaviviruses, Pestiviruses and Hepacivirus” (priority 2004, published 2008).

Test system: HCV

NC(=O)c1ncn([C@@H]2O[C@H](CO)[C@@H](O)[C@H]2O)n1 [Ribavirin, 1-[…]D-ribofuranosyl-1-1,2,4-triazole-3-carboxamide]
effect on serum levels of HCV-RNA (patients, monotherapy): does not lower serum levels of HCV-RNA
serum amino transferase levels reduced to normal, share of patients (ribavirin alone): 40%
